Measured values as given in patent publication US20240174636A1, “NOVEL INDOLEAMINE 2,3-DIOXYGENASE INHIBITORS, PROCESSES FOR THE PREPARATION THEREOF AND PHARMACEUTICAL COMPOSITIONS COMPRISING THE SAME” (YUHAN CORPORATION, priority 2021, published 2024).

Each molecule was assayed against T1, IDO1 (Homo sapiens, UniProt P14902) (assay: IDO1 cellular activity using HEK293 cells transfected with IDO1 expression vector). Details: 24 h compound incubation, read-out: Inhibitory Activity (IC50).
Assay type: cell-based
Design: host or cells: HEK293 cells, transient transfection with Lipofectamine 2000
Experimental: HEK293 cells were seeded at a density of 30000 cells/well in 100 μl of a culture medium (DMEM supplemented with 10% FBS, penicillin 100 U/ml, and streptomycin 100 μg/ml) in a tissue culture-treated 96 well plate. The cells were cultured in a 5% carbon dioxide incubator for 24 hours, transfected with the IDO1 expression vector (component A in IDO1 cell-based assay kit, catalog #72031, BPS Bioscience) using Lipofectamine 2000 (Life Technologies, #11668027), and then cultured for 24 hours in a 5% carbon dioxide incubator to express the IDO protein.
The activities were measured using a IDO1 cell-based assay kit (catalog #72031, BPS Bioscience). Specifically, an assay medium was prepared by diluting IDO1 assay medium substrate 1 and IDO1 assay medium supplement 2 in a culture medium at a ratio of 1:100, respectively. The test compounds were diluted to the predetermined concentrations in the fresh assay medium. After removing the culture medium using a multi-pipet, 200 μl of each assay medium containing the test material was added into respective well, followed by incubating in a 5% carbon dioxide incubator for 24 hours. The next day, 140 μl of culture medium from each well was transferred to a new 96-well plate. 10 μl of 6.1N trichloroacetic acid was added into each well, which was then cultured in a 50° C. incubator for 30 minutes. The plate was centrifuged at 2500 rpm for 10 minutes to settle any sediment. A detection reagent solution was prepared by diluting the detection reagent (component D in IDO1 cell-based assay kit, catalog #72031 BPS Bioscience) 50-fold in acetic acid. 100 μl of the supernatant taken from the centrifuged plate was transferred to a new transparent 96-well plate and then 100 μl of the detection reagent solution was added thereto. After reacting at room temperature for 10 minutes, absorbance was measured at 480 nm wavelength. For analysis of the results, the absorbance (At) of the well containing HEK293 cells in which IDO protein was expressed without treatment of an inhibitor was 100%; and the absorbance (Ab) of the well containing HEK293 cells in which IDO protein was not expressed was 0. The % absorbance was calculated according to the following equation: % Absorbance=(A−Ab)/(At−Ab), A=absorbance of the well treated with the test compound.

T1 sequence (P14902 whole entry): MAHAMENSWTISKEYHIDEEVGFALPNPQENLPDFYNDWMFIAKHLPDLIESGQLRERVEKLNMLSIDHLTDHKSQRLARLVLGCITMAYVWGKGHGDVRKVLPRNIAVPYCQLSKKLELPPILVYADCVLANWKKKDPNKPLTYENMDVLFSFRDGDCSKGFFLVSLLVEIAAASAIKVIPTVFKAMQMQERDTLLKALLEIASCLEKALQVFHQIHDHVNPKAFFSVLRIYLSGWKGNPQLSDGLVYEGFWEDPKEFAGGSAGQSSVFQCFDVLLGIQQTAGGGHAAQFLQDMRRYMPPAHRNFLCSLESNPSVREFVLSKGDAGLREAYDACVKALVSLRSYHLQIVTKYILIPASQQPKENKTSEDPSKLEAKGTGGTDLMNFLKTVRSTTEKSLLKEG

SMILES	IC50 [µM]
C[C@H](C[C@H]1CC[C@@H](c2ccnc3ccc(F)cc32)CC1)Nc1nc2ccc(Cl)cc2s1 [Example 13, 6-chloro-N-((R)-1-((cis)-4-(6-fluoroquinolin-4-yl)cyclohexyl)propan-2-yl)benzo[d]thiazol-2-amine]	0.0326
C[C@H](C[C@H]1CC[C@@H](c2ccnc3ccc(F)cc32)CC1)Nc1nc2ccc(Cl)c(Cl)c2o1 [Example 46, 6,7-dichloro-N-((R)-1-((cis)-4-(6-fluoroquinolin-4-yl)cyclohexyl)propan-2-yl)benzo[d]oxazol-2-amine]	0.0172
C[C@H](C[C@H]1CC[C@@H](c2ccnc3ccc(F)cc32)CC1)Nc1nccc2cc(F)ccc12 [Example 33, 6-fluoro-N-((R)-1-((cis)-4-(6-fluoroquinolin-4-yl)cyclohexyl)propan-2-yl)isoquinolin-1-amine]	0.116
CCOc1ccc2nc(N[C@H](C)C[C@H]3CC[C@@H](c4ccnc5ccc(F)cc54)CC3)oc2c1 [Example 44, 6-ethoxy-N-((R)-1-((cis)-4-(6-fluoroquinolin-4-yl)cyclohexyl)propan-2-yl)benzo[d]oxazol-2-amine]	0.0044
COc1ccc2nc(N[C@H](C)C[C@H]3CC[C@@H](c4ccnc5ccc(F)cc54)CC3)oc2c1F [Example 42, 7-fluoro-N-((R)-1-((cis)-4-(6-fluoroquinolin-4-yl)cyclohexyl)propan-2-yl)-6-methoxybenzo[d]oxazol-2-amine]	0.0066
C[C@H](C[C@H]1CC[C@H](c2ccnc3ccc(F)cc32)CC1)Nc1nc(Cl)nc2cc(F)ccc12 [Example 54, 2-chloro-7-fluoro-N-((R)-1-((trans)-4-(6-fluoroquinolin-4-yl)cyclohexyl)propan-2-yl)quinazolin-4-amine]	0.0436
C[C@H](C[C@H]1CC[C@@H](c2ccnc3ccc(F)cc32)CC1)Nc1nc(Cl)nc2cc(F)ccc12 [Example 62, 2-chloro-7-fluoro-N-((R)-1-((cis)-4-(6-fluoroquinolin-4-yl)cyclohexyl)propan-2-yl)quinazolin-4-amine]	0.0566
C[C@H](C[C@H]1CC[C@@H](c2ccnc3ccc(F)cc32)CC1)Nc1nc2cc(F)ccc2o1 [Example 36, 5-fluoro-N-((R)-1-((cis)-4-(6-fluoroquinolin-4-yl)cyclohexyl)propan-2-yl)benzo[d]oxazol-2-amine]	0.0057
C[C@H](C[C@H]1CC[C@@H](c2ccnc3ccc(F)cc32)CC1)Nc1nc2cccc(F)c2o1 [Example 37, 7-fluoro-N-((R)-1-((cis)-4-(6-fluoroquinolin-4-yl)cyclohexyl)propan-2-yl)benzo[d]oxazol-2-amine]	0.0076
C[C@H](C[C@H]1CC[C@H](c2ccnc3ccc(F)cc32)CC1)Nc1nc(Cl)nc2cc(Cl)ccc12 [Example 41, 2,7-dichloro-N-((R)-1-((trans)-4-(6-fluoroquinolin-4-yl)cyclohexyl)propan-2-yl)quinazolin-4-amine]	0.0076
C[C@H](C[C@H]1CC[C@@H](c2ccnc3ccc(F)cc32)CC1)Nc1nc(Cl)nc2cc(C(F)(F)F)ccc12 [Example 66, 2-chloro-N-((R)-1-((cis)-4-(6-fluoroquinolin-4-yl)cyclohexyl)propan-2-yl)-7-(trifluoromethyl)quinazolin-4-amine]	0.0308

The molecules below were run against T1, IDO1 (assay: IDO1 cellular activity using Hela cells (IFN-gamma induced IDO expression, kynurenine absorbance at 480 nm)). Details: IDO induced with interferon gamma 50 ng/ml, 24 h compound incubation, read-out: Inhibitory Activity (IC50).
Assay type: cell-based
Experimental: Hela cells were seeded at a density of 20000 cells/well in 100 μl of a culture medium (EMEM supplemented with 10% FBS, penicillin 100 U/ml, and streptomycin 100 μg/ml) in a tissue culture-treated 96 well plate. The cells were cultured in a 5% carbon dioxide incubator for 24 hours, treated with recombinant human interferon gamma at the concentration of 50 ng/ml, and then cultured for 48 hours in a 5% carbon dioxide incubator to induce IDO expression.
The activities were measured using IDO1 cellular activity-measuring substrate (IDO1 cellular activity quickDetect supplements catalog: #62000-2, BPS Bioscience). Specifically, an assay medium was prepared by diluting IDO1 assay medium substrate 1 and IDO1 assay medium supplement 2 in a culture medium at a ratio of 1:100, respectively. The test compounds were diluted to the predetermined concentrations in the fresh assay medium. After removing the culture medium using a multi-pipet, 200 μl of each assay medium containing the test material was added into the respective well, followed by incubating in a 5% carbon dioxide incubator for 24 hours. The next day, 140 μl of culture medium from each well was transferred to a new 96-well plate. 10 μl of 6.1N trichloroacetic acid was added into each well, which was then cultured in a 50° C. incubator for 30 minutes. The plate was centrifuged at 2500 rpm for 10 minutes to settle any sediment. A detection reagent solution was prepared by diluting the detection reagent (component D kit, catalog: #62000-2, BPS Bioscience) 50-fold in acetic acid. 100 μl of the supernatant taken from the centrifuged plate was transferred to a new transparent 96-well plate and then 100 μl of the detection reagent solution was added thereto. After reacting at room temperature for 10 minutes, absorbance was measured at 480 nm wavelength. For analysis of the results, the absorbance (At) of the well containing Hela cells in which IDO protein expression was induced without treatment of an inhibitor was 100%; and the absorbance (Ab) of the well containing Hela cells in which IDO protein expression was not induced was 0. The % absorbance was calculated according to the following equation: % Absorbance=(A−Ab)/(At−Ab), A=absorbance of the well treated with the test compound.
The results obtained by calculating the 50% inhibitory concentration (C50) of each compound, from the absorbance values obtained as described above, are shown in Table 1 below.

SMILES	IC50 [µM]
C[C@H](C[C@H]1CC[C@@H](c2ccnc3ccc(F)cc32)CC1)Nc1nc2ccc(Cl)cc2s1 [Example 13, 6-chloro-N-((R)-1-((cis)-4-(6-fluoroquinolin-4-yl)cyclohexyl)propan-2-yl)benzo[d]thiazol-2-amine]	0.03
C[C@H](C[C@H]1CC[C@H](c2ccnc3ccc(F)cc32)CC1)Nc1cc(=O)oc2cc(Cl)ccc12 [Example 6, 7-chloro-4-(((R)-1-((trans)-4-(6-fluoroquinolin-4-yl)cyclohexyl)propan-2-yl)amino)-2H-chromen-2-one]	0.017
COc1ccc2nc(N[C@H](C)C[C@H]3CC[C@@H](c4ccnc5ccc(F)cc54)CC3)sc2c1 [Example 14, N-((R)-1-((cis)-4-(6-fluoroquinolin-4-yl)cyclohexyl)propan-2-yl)-6-methoxybenzo[d]thiazol-2-amine]	0.001
C[C@H](C[C@H]1CC[C@H](c2ccnc3ccc(F)cc32)CC1)Nc1cc(=O)oc2ccc(Br)cc12 [Example 7, 6-bromo-4-(((R)-1-((trans)-4-(6-fluoroquinolin-4-yl)cyclohexyl)propan-2-yl)amino)-2H-chromen-2-one]	0.019
C[C@H](C[C@H]1CC[C@H](c2ccnc3ccc(F)cc32)CC1)Nc1ncnc2cc(Cl)ccc12 [Example 4, 7-chloro-N-((R)-1-((trans)-4-(6-fluoroquinolin-4-yl)cyclohexyl)propan-2-yl)quinazolin-4-amine]	0.011
C[C@H](C[C@H]1CC[C@@H](c2ccnc3ccc(F)cc32)CC1)Nc1ncnc2cc(Cl)ccc12 [Example 3, 7-chloro-N-((R)-1-((cis)-4-(6-fluoroquinolin-4-yl)cyclohexyl)propan-2-yl)quinazolin-4-amine]	0.014
C[C@H](C[C@H]1CC[C@@H](c2ccnc3ccc(F)cc32)CC1)Nc1nc2ccccc2o1 [Example 24, N-((R)-1-((cis)-4-(6-fluoroquinolin-4-yl)cyclohexyl)propan-2-yl)benzo[d]oxazol-2-amine]	0.017
C[C@H](C[C@H]1CC[C@@H](c2ccnc3ccc(F)cc32)CC1)Nc1cc(=O)oc2cc(Cl)ccc12 [Example 8, 7-chloro-4-(((R)-1-((cis)-4-(6-fluoroquinolin-4-yl)cyclohexyl)propan-2-yl)amino)-2H-chromen-2-one]	0.0059
C[C@H](C[C@H]1CC[C@@H](c2ccnc3ccc(F)cc32)CC1)Nc1cc(=O)oc2cc(Br)ccc12 [Example 9, 7-bromo-4-(((R)-1-((cis)-4-(6-fluoroquinolin-4-yl)cyclohexyl)propan-2-yl)amino)-2H-chromen-2-one]	0.018
COc1ccc2nc(N[C@@H](C[C@H]3CC[C@@H](c4ccnc5ccc(F)cc54)CC3)C3CC3)sc2c1 [Example 16, N-((S)-1-cyclopropyl-2-((cis)-4-(6-fluoroquinolin-4-yl)cyclohexyl)ethyl)-6-methoxybenzo[d]thiazol-2-amine]	0.004
CC[C@H](C[C@H]1CC[C@@H](c2ccnc3ccc(F)cc32)CC1)Nc1nc2ccc(OC)cc2s1 [Example 15, N-((R)-1-((cis)-4-(6-fluoroquinolin-4-yl)cyclohexyl)butan-2-yl)-6-methoxybenzo[d]thiazol-2-amine]	0.0051
C[C@H](C[C@H]1CC[C@@H](c2ccnc3ccc(F)cc32)CC1)Nc1nc2ncccc2s1 [Example 21, N-((R)-1-((cis)-4-(6-fluoroquinolin-4-yl)cyclohexyl)propan-2-yl)thiazolo[4,5-b]pyridin-2-amine]	0.018
C[C@H](C[C@H]1CC[C@@H](c2ccnc3ccc(F)cc32)CC1)Nc1ncnc2cc(C#N)ccc12 [Example 1, 4-(((R)-1-((cis)-4-(6-fluoroquinolin-4-yl)cyclohexyl)propan-2-yl)amino)quinazolin-7-carbonitrile]	0.016
